Patent US20100298141A1, “SUBSTITUTED PYRIDINE N-OXIDE HERBICIDES” (E. I. DU PONT DE NEMOURS AND COMPANY, priority 2007, published 2010)

Assays:
[1] = tested on: green foxtail; experiment: Test C pre-/postemergence test; assay type: in vivo, Setaria viridis
Description: (§1) Seeds of plant species selected from blackgrass (Alopecurus myosuroides), downy brome (Bromus tectorum), green foxtail (Setaria viridis), Italian ryegrass (Lolium multiflorum), wheat (Triticum aestivum), wild oat (Avena fatua), catchweed bedstraw (Galium aparine), Russian thistle (Salsola kali), […] (Cynodon dactylon), Surinam grass (Brachiaria decumbens), cocklebur (Xanthium strumarium), corn (Zea mays), crabgrass (Digitaria sanguinalis), woolly cupgrass (Eriochloa villosa), giant foxtail (Setaria faberii), Goosegrass (Eleusin indica), johnsongrass (Sorghum halepense), kochia (Kochia scoparia), lambsquarters (Chenopodium album), morningglory (Ipomoea coccinea), eastern black nightshade (Solanum ptycanthum), yellow nutsedge (Cyperus esculentus), pigweed (Amaranthus retroflexus), common ragweed (Ambrosia elation), soybean (Glycine max), common (oilseed) sunflower (Helianthus annuus), and velvetleaf (Abutilon theophrasti) were planted and treated preemergence with test chemicals formulated in a non-phytotoxic solvent mixture which included a surfactant. At the same time, plants selected from these crop and weed species and also winter barley (Hordeum vulgare), canarygrass (Phalaris minor), and chickweed (Stellaria media) were treated with postemergence applications of some of the test chemicals formulated in the same manner. Plants ranged in height from 2 to 18 cm (1- to 4-leaf stage) for postemergence treatments. […] At time of treatment, test pots were flooded to 3 cm above the soil surface, treated by application of test compounds directly to the paddy water, and then maintained at that water depth for the duration of the test. […] A dash (-) response means no test result.

[2] = tested on: common ragweed; experiment: Test C pre-/postemergence test; assay type: in vivo, Ambrosia elation
Description: as §1

[3] = tested on: blackgrass; experiment: Test C pre-/postemergence test; assay type: in vivo, Alopecurus myosuroides
Description: as §1

[4] = tested on: corn; experiment: Test A pre-/postemergence greenhouse test; assay type: in vivo, Zea mays; conditions: for Plant response rating, Corn: 0 to 100 scale where 0 is no effect and 100 is complete control; for Corn plant response rating: 0 to 100 scale
Summary of the method: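 Seeds sown in a loam soil–sand blend got a preemergence directed soil spray of compound in a non-phytotoxic solvent mixture containing surfactant. Postemergence sprays of the same formulation went at the same time onto plants 2–10 cm tall at the one- to two-leaf stage. Injury was scored visually against untreated controls after about ten days in the greenhouse.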

[5] = Postemergence, 62 g ai/ha, scale 0 to 100, 0 no effect, 100 complete control
[6] = Postemergence, 125 g ai/ha, scale 0 to 100, 0 no effect, 100 complete control
[7] = Postemergence, 250 g ai/ha, scale 0 to 100, 0 no effect, 100 complete control
[8] = Postemergence, 500 g ai/ha, 0 is no effect, 100 is complete control
[9] = Preemergence, 125 g ai/ha, 0 no effect, 100 complete control
[10] = 31 g ai/ha, Preemergence, scale 0 to 100
[11] = 62 g ai/ha, preemergence, scale 0 (no effect) to 100 (complete control)
[12] = preemergence, 125 g ai/ha, scale 0 (no effect) to 100 (complete control)
[13] = Postemergence, 125 g ai/ha, 0 is no effect, 100 is complete control
[14] = 62 g ai/ha, Preemergence, scale 0 to 100
[15] = 125 g ai/ha, preemergence, scale 0 (no effect) to 100 (complete control)
[16] = Preemergence, 31 g ai/ha, scale 0 to 100 (0 no effect, 100 complete control)
[17] = preemergence, 250 g ai/ha, scale 0 (no effect) to 100 (complete control)
[18] = Preemergence, 500 g ai/ha, 0 no effect, 100 complete control

SMILES | Plant response rating, Corn ([4]; Postemergence, 125 g ai/ha) | Corn plant response rating [4, 8] | Corn plant response rating [4, 9] | Plant response rating, Corn ([4]; Preemergence, 500 g ai/ha) | Corn plant response rating [4, 13] | Foxtail, Green plant response rating [1, 14] | Foxtail, Green plant response rating [1, 15] | Plant response rating, Foxtail, Green [1, 16] | Foxtail, Green plant response rating [1, 17] | Ragweed plant response rating [2, 14] | Ragweed plant response rating [2, 15] | Plant response rating, Ragweed [2, 16] | Ragweed plant response rating [2, 17] | Blackgrass plant response rating [3, 14] | Blackgrass plant response rating [3, 15] | Plant response rating, Blackgrass [3, 16] | Blackgrass plant response rating [3, 17] | further results
Cn1nc(C(F)(F)F)c(C[S+]([O-])c2cccc[n+]2[O-])c1OCC(F)(F)C(F)(F)F (stereo not shown) [Compound 78] | 20 | 40 | 30 | 90 | – | – | – | – | – | – | – | – | – | – | – | – | – | Plant response rating (0 to 100), Foxtail, Green ([1]; Postemergence, 31 g ai/ha): 0; Plant response rating, Foxtail, Green [1, 5]: 0; Plant response rating, Foxtail, Green [1, 6]: 45; Plant response rating, Foxtail, Green [1, 7]: 80; Plant response rating (0 to 100), Ragweed ([2]; Postemergence, 31 g ai/ha): 0; Plant response rating (0 to 100), Ragweed ([2]; Postemergence, 62 g ai/ha): 0; Plant response rating, Ragweed [2, 6]: 0; Plant response rating, Ragweed [2, 7]: 0; Plant response rating (0 to 100), Blackgrass ([3]; Postemergence, 31 g ai/ha): 0; Plant response rating, Blackgrass [3, 5]: 0; Plant response rating, Blackgrass [3, 6]: 50; Plant response rating, Blackgrass [3, 7]: 100
Cn1nc(C(F)(F)F)c(C[S+]([O-])c2ccc(Br)c[n+]2[O-])c1OC(F)F (racemic) [Compound 16] | – | 60 | 0 | 60 | 50 | – | – | – | – | – | – | – | – | – | – | – | – | Foxtail, Green plant response rating [1, 10]: 70; Foxtail, Green plant response rating [1, 11]: 70; Plant response rating (0 to 100), Foxtail, Green ([1]; Preemergence, 250 g ai/ha): 100; Foxtail, Green plant response rating [1, 12]: 70; Ragweed plant response rating [2, 10]: 10; Ragweed plant response rating [2, 11]: 45; Ragweed plant response rating [2, 12]: 100; Blackgrass plant response rating [3, 10]: 0; Blackgrass plant response rating [3, 11]: 50; Blackgrass plant response rating [3, 12]: 50
Cn1nc(C(F)(F)F)c(C(Cl)S(=O)(=O)c2cccc[n+]2[O-])c1OC(F)F (stereo not shown) [Compound 51] | 0 | 20 | 0 | 0 | – | 85 | 85 | 65 | 100 | 0 | 30 | 0 | 85 | 90 | 90 | 80 | 100 | –
C#CCOc1c(CS(=O)(=O)c2cccc[n+]2[O-])c(C(F)(F)F)nn1C [Compound 103] | 0 | 60 | 0 | – | – | 98 | 100 | 60 | 100 | 0 | 80 | 0 | 85 | 100 | 100 | 100 | 100 | Corn plant response rating [4, 18]: 60
Cn1nc(C(F)(F)F)c(C[S+]([O-])c2cc(C(C)(C)C)cc[n+]2[O-])c1OC(F)F (racemic) [Compound 24] | – | 40 | 0 | 40 | 0 | 70 | – | 10 | – | 70 | – | 0 | – | 20 | – | 20 | – | Plant response rating (0 to 100), Foxtail, Green ([1]; Preemergence, 250 g ai/ha): 100; Plant response rating (0 to 100), Blackgrass ([3]; Preemergence, 250 g ai/ha): 100; Blackgrass plant response rating [3, 12]: 50
CC(c1c(C(F)(F)F)nn(CC(F)(F)F)c1Cl)[S+]([O-])c1cccc[n+]1[O-] (stereo not shown) [Compound 46] | 0 | 0 | 0 | 0 | – | 98 | 100 | 95 | 100 | 0 | 5 | 0 | 60 | 100 | 100 | 70 | 100 | –
C#CCOc1c(C[S+]([O-])c2cccc[n+]2[O-])c(C(F)(F)F)nn1C (stereo not shown) [Compound 76] | 40 | 60 | 0 | 80 | – | 100 | 100 | 70 | 100 | 20 | 100 | – | 100 | 100 | 100 | 0 | 100 | –
Cc1cc[n+]([O-])c(S(=O)(=O)Cc2c(C(F)(F)F)nn(C)c2OCC(F)F)c1 [Compound 94] | 40 | 80 | 20 | 70 | – | 100 | 100 | 98 | 100 | 100 | 100 | 60 | 100 | 95 | 100 | 70 | 100 | –
Cn1nc(C(F)(F)F)c(C[S+]([O-])c2cc(F)cc[n+]2[O-])c1Cl (racemic) [Compound 42] | – | 70 | 0 | 0 | 0 | 100 | 100 | 98 | 100 | 70 | 90 | 5 | 90 | 70 | 95 | 70 | 98 | –
CC(C)c1cc[n+]([O-])c([S+]([O-])Cc2c(C(F)(F)F)nn(C)c2OC(F)F)c1 (stereo not shown) [Compound 109] | 60 | 80 | 50 | – | – | 95 | 100 | 50 | 100 | 50 | 55 | 50 | 80 | 70 | 80 | 40 | 80 | Corn plant response rating [4, 18]: 90
